Experimental data published in ChEMBL document CHEMBL1201862, “PubChem BioAssay data set” (2004).
Activity calls are given as the source filed them.

Experiments:
[1] = biological target: Ubiquitin carboxyl-terminal hydrolase BAP1 (Homo sapiens, UniProt Q92560); assay: inhibition of BAP1 ubiquitin hydrolase activity – biochemical, dose response (AID 714); assay type: functional
Mucolipin-3 = Mucolipin-3 (Homo sapiens, UniProt Q8TDD5); assay: Dose response cell-based high-throughput screening assay for agonists of the transient receptor potential channel ML3 (TRPML3). [Related pubchem assays: 1526, 1424, 1448 ]; assay type: functional
Ion channel NompC = Ion channel NompC (Danio rerio, UniProt Q7T1G6); assay: Fluorescence counterscreen assay for TRPML3 agonists: dose response cell-based high-throughput screening assay to identify agonists of the transient receptor potential channel N1 (TRPN1). [Related pubchem assays: 1526, 1424, 1448 ]; assay type: functional
[2] = inhibitors of non-replicating M. tuberculosis, dose response, luciferase, dry powder (AID 651619); assay type: functional; conditions: Mycobacterium tuberculosis
[3] = HepG2 hepatoma cell viability loss – plate reader, dry powder, cytotoxicity control, dose response (AID 651947); assay type: functional, cell-based
[4] = inhibitors of non-replicating M. tuberculosis, dose response, luciferase, dry powder (AID 651620); assay type: functional; conditions: Mycobacterium tuberculosis
[5] = growth inhibition of replicating M. tuberculosis, dose response, counter-screen, dry powder, IC90 (AID 651617); assay type: functional; conditions: Mycobacterium tuberculosis
NADPH oxidase 1 = NADPH oxidase 1 (Homo sapiens, UniProt Q9Y5S8); assay type: functional, cell-based;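 further: Cell-based assay with luminescence read-out, IC50 derived from inhibitor dose-response curves; intracellular ROS from endogenous NOX1 in intact HT29 colon cancer cells; potency of inhibitors that lower the ROS luminescence signal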
[6] = biological target: Induced myeloid leukemia cell differentiation protein Mcl-1 (Homo sapiens, UniProt Q07820); assay: blockers of MCL1 binding to BIM peptide – biochemical, fluorescence polarization, BIM-BH3 peptide, 1536-well, dose response (AID 2217)
Bcl-2-like protein 1 = Bcl-2-like protein 1 (Homo sapiens, UniProt Q07817); assay: blockers of BCLXL peptide binding – biochemical, fluorescence polarization, 1536-well, selectivity assay for MCL1 inhibitor project, dose response (AID 2218)
Nonstructural protein 1 = Nonstructural protein 1 (Influenza A virus, UniProt Q194T2); assay type: functional, Influenza A virus (A/California/07/2009(H1N1))
[7] = viability of PTEN-deleted HCT116 cells – cell-based, HCT116 PTEN knockout, dose response (AID 1047); assay type: functional;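 further: HCT116 colon tumor cells with PTEN knocked out; cells exposed to compound for 60 hours before readout; potency for loss of cell viability measured by luminescence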
[8] = viability of HCT116 lacking mutant beta-catenin – cell-based, human colon tumor, dose response (AID 1045); assay type: functional;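 further: HCT116 colon tumor cells with beta catenin knocked out; cells exposed to compound for 60 hours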
Estrogen receptor = biological target: T1, Estrogen receptor (Homo sapiens, UniProt P03372); assay: ERα coactivator recruitment enhancers – biochemical, TR-FRET, ERα LBD, dose response (AID 737)
T1 sequence (P03372 whole entry): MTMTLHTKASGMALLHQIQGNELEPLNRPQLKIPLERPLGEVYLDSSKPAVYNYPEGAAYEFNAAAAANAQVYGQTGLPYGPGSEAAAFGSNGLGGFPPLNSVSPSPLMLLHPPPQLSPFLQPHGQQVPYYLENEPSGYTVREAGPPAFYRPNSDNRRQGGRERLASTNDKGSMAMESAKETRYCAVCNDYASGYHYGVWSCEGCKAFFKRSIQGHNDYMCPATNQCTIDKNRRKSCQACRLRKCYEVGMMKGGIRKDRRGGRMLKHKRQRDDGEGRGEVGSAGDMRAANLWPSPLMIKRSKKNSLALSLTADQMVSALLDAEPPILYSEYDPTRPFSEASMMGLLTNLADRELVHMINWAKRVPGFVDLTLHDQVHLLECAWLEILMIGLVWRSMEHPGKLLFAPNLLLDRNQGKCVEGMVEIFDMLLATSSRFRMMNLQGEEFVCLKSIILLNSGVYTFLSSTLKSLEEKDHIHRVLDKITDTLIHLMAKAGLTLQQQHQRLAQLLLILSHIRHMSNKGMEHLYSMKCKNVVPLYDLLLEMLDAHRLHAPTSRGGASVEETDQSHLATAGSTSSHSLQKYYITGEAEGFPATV

Caspase-6 = Caspase-6 (Homo sapiens, UniProt P55212); assay: inhibition of CASP6 peptide cleavage – biochemical, VEID-R110 fluorescence, cherry-pick, dose response (AID 720632)
[9] = P. falciparum Dd2 growth inhibitors, dose response, SYBR Green, cherry-picked samples (AID 1159567); assay type: functional, cell-based
[10] = toxicity to human hepatoma HepG2 cells – cell-based, cherry-picked samples, cytotoxicity control, dose response (AID 1159577); assay type: functional
[11] = Dd2 parasite growth inhibition in erythrocytes – SYBR Green, dry powder samples, set 4, dose response (AID 1159572); assay type: functional, cell-based
[12] = Late-stage results from the probe development effort to identify antagonists of arginine vasopressin receptor 1a (AVPR1a): fluorescence-based cell-based dose response AVPR1a inhibition assay.; assay type: functional
Vasopressin V1b receptor = Vasopressin V1b receptor (Homo sapiens, UniProt P47901); assay: Late-stage results from the probe development effort to identify antagonists of arginine vasopressin receptor 1a (AVPR1a): fluorescence-based cell-based dose response AVPR1b inhibition counterscreen assay.; assay type: functional
Vasopressin V2 receptor = Vasopressin V2 receptor (Homo sapiens, UniProt P30518); assay: Late-stage results from the probe development effort to identify antagonists of arginine vasopressin receptor 1a (AVPR1a): fluorescence-based cell-based dose response AVPR2 inhibition counterscreen assay.; assay type: functional
[13] = Late-stage results from the probe development effort to identify antagonists of arginine vasopressin receptor 1a (AVPR1a): fluorescence-based cell-based dose response OXTR inhibition counterscreen assay.; assay type: functional
[14] = Trypanosoma cruzi growth suppression in host cells – NIH3T3 host cells, beta-gal luminescence, confirmation (AID 2044); assay type: functional, cell-based;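 further: intracellular parasites grown in NIH/3T3 mouse fibroblasts as host cells; luminescent beta-galactosidase reporter signal from transgenic T. cruzi replicating inside host cells; inhibitors lower the luminescence signal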
[15] = NIH3T3 cell viability loss – ATP luminescence, mouse fibroblasts, counter-screen, dose response (AID 2010); assay type: functional, cell-based;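 further: cells exposed to compound for about 90 hours before reading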
[16] = viability loss in Vero cells – cytotoxicity control for Vif-APOBEC3G degradation inhibitor project, dose response (AID 1117358); assay type: functional; conditions: Vero

Chain of Vasopressin V2 receptor (P30518 whole entry): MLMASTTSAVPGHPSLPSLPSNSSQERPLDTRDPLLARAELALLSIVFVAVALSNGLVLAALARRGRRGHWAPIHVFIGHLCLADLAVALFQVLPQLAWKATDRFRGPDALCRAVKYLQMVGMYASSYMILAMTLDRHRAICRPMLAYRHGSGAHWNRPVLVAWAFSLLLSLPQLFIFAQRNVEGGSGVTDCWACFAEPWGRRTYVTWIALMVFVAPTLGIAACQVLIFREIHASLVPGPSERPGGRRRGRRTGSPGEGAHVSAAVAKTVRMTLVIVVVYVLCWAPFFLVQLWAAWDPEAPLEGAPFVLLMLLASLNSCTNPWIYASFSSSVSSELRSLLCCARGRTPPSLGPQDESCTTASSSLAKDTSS
Chain of Ubiquitin carboxyl-terminal hydrolase BAP1 (Q92560 whole entry): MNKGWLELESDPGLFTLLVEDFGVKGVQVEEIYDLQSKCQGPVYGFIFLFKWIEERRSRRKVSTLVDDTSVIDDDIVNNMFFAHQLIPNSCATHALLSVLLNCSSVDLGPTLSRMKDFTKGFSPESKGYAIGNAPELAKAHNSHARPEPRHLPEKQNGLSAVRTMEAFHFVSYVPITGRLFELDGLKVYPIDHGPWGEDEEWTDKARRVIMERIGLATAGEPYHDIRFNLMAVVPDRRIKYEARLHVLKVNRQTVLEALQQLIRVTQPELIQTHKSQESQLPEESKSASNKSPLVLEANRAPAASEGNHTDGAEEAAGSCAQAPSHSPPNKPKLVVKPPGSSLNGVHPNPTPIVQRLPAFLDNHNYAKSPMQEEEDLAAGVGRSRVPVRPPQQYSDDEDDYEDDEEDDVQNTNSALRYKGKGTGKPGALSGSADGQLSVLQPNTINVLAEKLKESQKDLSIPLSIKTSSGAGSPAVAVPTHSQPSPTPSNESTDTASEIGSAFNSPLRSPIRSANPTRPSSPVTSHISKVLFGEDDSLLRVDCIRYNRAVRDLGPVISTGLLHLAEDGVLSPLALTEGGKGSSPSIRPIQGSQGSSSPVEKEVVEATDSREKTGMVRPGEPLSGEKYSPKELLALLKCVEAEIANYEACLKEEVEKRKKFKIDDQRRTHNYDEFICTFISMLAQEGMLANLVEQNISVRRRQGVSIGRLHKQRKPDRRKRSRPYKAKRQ
Chain of Nonstructural protein 1 (Q194T2 whole entry): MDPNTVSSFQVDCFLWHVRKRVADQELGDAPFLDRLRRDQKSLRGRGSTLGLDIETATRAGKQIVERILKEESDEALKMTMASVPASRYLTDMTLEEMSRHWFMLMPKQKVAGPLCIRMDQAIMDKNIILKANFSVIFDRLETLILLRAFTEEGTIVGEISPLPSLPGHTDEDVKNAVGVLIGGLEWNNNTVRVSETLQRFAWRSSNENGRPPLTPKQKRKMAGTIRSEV
Chain of Induced myeloid leukemia cell differentiation protein Mcl-1 (Q07820 whole entry): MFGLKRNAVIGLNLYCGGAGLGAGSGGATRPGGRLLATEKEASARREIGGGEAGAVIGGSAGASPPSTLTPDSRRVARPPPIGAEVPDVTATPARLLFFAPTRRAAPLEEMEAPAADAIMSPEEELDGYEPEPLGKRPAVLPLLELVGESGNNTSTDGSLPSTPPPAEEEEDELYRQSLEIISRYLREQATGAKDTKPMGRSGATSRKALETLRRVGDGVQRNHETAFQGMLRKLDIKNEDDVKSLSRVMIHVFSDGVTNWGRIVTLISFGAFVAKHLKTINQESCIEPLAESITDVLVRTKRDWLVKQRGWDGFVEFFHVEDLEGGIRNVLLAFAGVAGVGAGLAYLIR
Chain of NADPH oxidase 1 (Q9Y5S8 whole entry): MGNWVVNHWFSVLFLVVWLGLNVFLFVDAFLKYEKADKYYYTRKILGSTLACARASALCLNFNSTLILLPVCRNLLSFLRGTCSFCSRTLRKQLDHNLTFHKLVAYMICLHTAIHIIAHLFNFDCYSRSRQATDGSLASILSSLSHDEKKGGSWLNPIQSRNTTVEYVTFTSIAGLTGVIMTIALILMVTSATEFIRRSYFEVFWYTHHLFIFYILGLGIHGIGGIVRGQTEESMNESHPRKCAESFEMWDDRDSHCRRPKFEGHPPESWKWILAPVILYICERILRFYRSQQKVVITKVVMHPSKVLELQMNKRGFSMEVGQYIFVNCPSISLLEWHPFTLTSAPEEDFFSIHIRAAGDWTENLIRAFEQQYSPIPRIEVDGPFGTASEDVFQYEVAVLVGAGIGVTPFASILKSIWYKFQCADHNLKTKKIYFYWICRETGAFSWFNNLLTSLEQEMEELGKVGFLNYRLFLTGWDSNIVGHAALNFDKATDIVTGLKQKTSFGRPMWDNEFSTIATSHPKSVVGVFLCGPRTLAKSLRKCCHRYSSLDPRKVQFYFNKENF
Chain of Caspase-6 (P55212 24-179 limits assumed): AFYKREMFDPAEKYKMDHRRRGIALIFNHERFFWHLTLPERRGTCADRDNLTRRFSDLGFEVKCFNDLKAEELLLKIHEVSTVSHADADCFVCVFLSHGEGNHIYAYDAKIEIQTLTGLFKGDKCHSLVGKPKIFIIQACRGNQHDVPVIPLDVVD
Chain of Caspase-6 (P55212 194-293 limits assumed): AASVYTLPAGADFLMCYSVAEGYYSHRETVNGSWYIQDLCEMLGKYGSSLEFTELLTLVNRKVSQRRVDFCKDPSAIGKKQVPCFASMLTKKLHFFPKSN
Chain of Mucolipin-3 (Q8TDD5 whole entry): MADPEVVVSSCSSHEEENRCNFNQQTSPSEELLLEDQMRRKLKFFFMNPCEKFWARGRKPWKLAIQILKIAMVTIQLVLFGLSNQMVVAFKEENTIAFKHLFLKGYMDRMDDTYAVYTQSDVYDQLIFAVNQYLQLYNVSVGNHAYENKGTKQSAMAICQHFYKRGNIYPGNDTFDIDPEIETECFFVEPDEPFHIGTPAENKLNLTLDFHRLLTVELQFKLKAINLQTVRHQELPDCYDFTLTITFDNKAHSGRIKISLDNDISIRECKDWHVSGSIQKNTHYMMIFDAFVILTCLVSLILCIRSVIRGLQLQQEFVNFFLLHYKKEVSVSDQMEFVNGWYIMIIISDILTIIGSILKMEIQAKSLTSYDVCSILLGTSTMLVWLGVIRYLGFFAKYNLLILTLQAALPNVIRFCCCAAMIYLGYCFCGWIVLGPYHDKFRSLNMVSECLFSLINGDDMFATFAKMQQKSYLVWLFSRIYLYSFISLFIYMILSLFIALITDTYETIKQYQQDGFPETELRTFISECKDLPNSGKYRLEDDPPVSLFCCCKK
Chain of Vasopressin V1b receptor (P47901 whole entry): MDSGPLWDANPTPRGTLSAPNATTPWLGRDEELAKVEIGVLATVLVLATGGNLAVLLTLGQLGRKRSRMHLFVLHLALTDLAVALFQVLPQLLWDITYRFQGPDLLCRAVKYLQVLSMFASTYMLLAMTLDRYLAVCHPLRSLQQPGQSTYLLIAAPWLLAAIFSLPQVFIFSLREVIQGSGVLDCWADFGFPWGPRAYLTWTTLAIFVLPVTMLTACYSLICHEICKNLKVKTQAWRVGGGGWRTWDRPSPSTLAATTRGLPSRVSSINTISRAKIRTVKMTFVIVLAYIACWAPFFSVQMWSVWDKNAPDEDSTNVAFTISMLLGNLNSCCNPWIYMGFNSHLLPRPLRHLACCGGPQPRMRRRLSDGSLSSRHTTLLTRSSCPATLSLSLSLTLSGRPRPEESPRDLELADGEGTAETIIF
Chain of Bcl-2-like protein 1 (Q07817 whole entry): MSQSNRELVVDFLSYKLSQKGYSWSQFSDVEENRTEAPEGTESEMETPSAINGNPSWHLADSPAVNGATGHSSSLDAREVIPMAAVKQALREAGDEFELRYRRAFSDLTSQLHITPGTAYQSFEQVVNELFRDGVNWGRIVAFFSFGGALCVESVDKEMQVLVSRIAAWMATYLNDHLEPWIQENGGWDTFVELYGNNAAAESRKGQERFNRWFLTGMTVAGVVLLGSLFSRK

COc1cccc(NC(=O)c2ccccc2-c2nc(-c3ccc(Cl)cc3)no2)c1
IC50 [1]: 9 µM (active)

COc1ccc(Cl)cc1N(CC(=O)N1CCCCC1)S(C)(=O)=O
EC50 (Mucolipin-3): 2.38 µM (active)
EC50 (Ion channel NompC): > 29.9 µM (not active)

c1ccc(Cn2cc(CSc3nnc(C4CCCC4)o3)nn2)cc1
IC90 [2]: 4 µM (active)
AC50 [3]: > 52 µM (inactive)
IC90 [4]: 4 µM (active)
IC90 [5]: 250 µM (active)

O=C(Oc1cccc(F)c1)c1sc2ccccc2c1Cl
IC50 (NADPH oxidase 1): > 17 µM (not active)

COc1cccc(/C=N/NC(=S)Nc2cccc(C(=O)O)c2)c1O
IC50 [6]: > 109 µM (not active)
IC50 (Bcl-2-like protein 1): > 109 µM (not active)
IC50 (Nonstructural protein 1): 4.94 µM (active)

Cc1ccc(-c2nnc(-c3ccc(NC(=O)c4ccco4)cc3)o2)cc1
EC50 [7]: 28.4 µM (active)
EC50 [8]: 46.1 µM (active)
EC50 (Estrogen receptor): 10.4 µM (active)

O=C(O)c1cc(S(=O)(=O)Nc2ccc3c[nH]nc3c2)ccc1O
AC50 (Caspase-6): 11.3 µM (active)

C/C=C/c1ccc([C@@H]2[C@@H]3CN(Cc4cccc(F)c4)C[C@H]2N3)cc1
AC50 [9]: 4.24 µM (active)
AC50 [10]: 9.58 µM (active)

COc1ccc2c3c([nH]c2c1)[C@H](CO)N(C(C)=O)CC31CCN(C(=O)Nc2ccc(F)cc2)CC1
AC50 [11]: 0.834 µM (active)

Cc1ccccc1N1CCN(c2nc3ccccc3n2CC2CC2)CC1
IC50 [12]: 7.54 µM (active)
IC50 (Vasopressin V1b receptor): 15.5 µM (inactive)
IC50 (Vasopressin V2 receptor): 19.4 µM (inactive)
IC50 [13]: 19.4 µM (inactive)

CCCCn1c(NCc2ccccc2NS(=O)(=O)c2ccc(C)cc2)nc2ccccc21
EC50 [14]: 2.21 µM (active)
EC50 [15]: > 60 µM (not active)
CC50 [16]: > 40 µM (active)
